Results published in patent EP1131297B1, “CERTAIN SUBSTITUTED CAPROLACTAMS, PHARMACEUTICAL COMPOSITIONS CONTAINING THEM AND THEIR USE IN TREATING TUMORS” (Novartis AG, priority 1998, dated 2000).
Values after ≈ are worked out from the molar mass of the structure shown. Read-outs that look alike come from different tables or passages of the source.

Assays:
[1] = tested on: MDA-MB-435 breast carcinoma; assay: Anchorage Dependent Growth Monolayer Assay (ADGMA), MTS readout; format: cell-based; conditions: Homo sapiens, MDA-MB-435, 72 h, average ± S.D., 3-day exposure, A490
Excerpt: As indicated above, all of the compounds of formula I, and their corresponding pharmaceutically acceptable acid addition salts, are anti-tumor agents and are, therefore, useful in inhibiting the growth of various lymphomas, sarcomas, carcinomas, myelomas, and leukemia cell lines. […] This assay was adapted from the 60 cell line assay used by the National Cancer Institute (NCI) with the following modifications: 1) a single cell line representative for the important tumor type, viz., MDA-MB-435 breast carcinoma was utilized; 2) a tetrazolium derivative, viz., MTS, was utilized to determine cell density.
The ADGMA compares the number of viable cells following a 3-day exposure to a test compound relative to a number of cells present at the time the test compound was added. […] The absorbance at 490 nm (A490) of the formazan derivative is proportional to the number of viable cells. The IC50 for a test compound is the concentration of compound required to reduce the final cell number to 50% of the final control cell number. If cell proliferation is inhibited, the assay further defines compounds as cytostatic (cell number after 3-day compound incubation >cell number at time of compound addition) or cytotoxic (cell number after 3-day compound incubation <cell number at time of compound addition).
The MDA-MB-435 breast carcinoma line was obtained from the American Type Culture Collection (ATCC) and used between passages 4-20 following thawing. MDA-MB-435 breast carcinoma was maintained and plated in DME/F12 medium containing 10% fetal bovine serum, 15 mM HEPES (pH=7.4), penicillin 100 units/mL, and streptomycin 100 µg/mL.
Cell lines are trypsinized and counted using a Coulter counter to determine plating densities. Cells are then plated in their respective maintenance media (100 µL/well) in 96 well plates at the following densities: MDA-MB-435, 3,000 cells/well. The number of cells plates as determined in preliminary experiments, results in cell densities of 75-90% of confluency by 4 days after plating. Initial cell densities, assayed one day after plating, are roughly 0.15-0.20 absorbance units greater than the media blank. Ninety-six well plates are seeded on day 0 and the test compounds are added on day 1. A control plate is created for each cell line that receives media only in row A and cells in row B. One day following plating, test compounds are added (in a final volume of 100 µL) to the test plates. Control plates receive 10 µL MTS mixture (prepared fresh on day of addition to cell plates at a ratio of 10 µL of a 0.92 mg/mL solution of PMS to a 190 µL of a 2 mg/mL solution of MTS) and 100 µL media. A490 of control plates is read 4h after MTS addition to determine initial cell density values for each cell line. Three days after addition of test compound, 10 µL/well of MTS mixture is added to the test plates and A490 is read 4h later. A490 values for wells containing cells are corrected for media absorbance, then normalized to initial density readings to determine percent net growth. IC50 values are determined from graphs of percent net growth as a function of compound concentration. Percent net growth is calculated as (Cell + Drug A490 - Initial A490/Cell + Drug Vehicle A490 - Initial A490).

[2] = tested on: MDA-MB-435 tumor xenografts; assay: Human tumor xenograft growth inhibition in athymic nude mouse model; format: in vivo, athymic (nu/nu) mice; conditions: for response vs control in vivo at 10 µmol/kg / response vs control in vivo at 33 µmol/kg / response vs control in vivo at 100 µmol/kg: Mus musculus, MDA-MB-435, iv, 504 h, read-out: %T/C
Description: The histologic tumor type employed was MDA-MB-435 breast carcinoma.
Positive controls are carried out with doxorubicin administered 3 times per week i.v.
Anti-tumor activity was expressed as %T/C (Δ MTV of treated group ö Δ MTV of control group X100).

physchem = conditions: water
[3] = 10 µmol/kg i.v., 3X/week for 3 weeks
[4] = 33 µmol/kg i.v., 3X/week for 3 weeks
[5] = 100 µmol/kg i.v., 3X/week for 3 weeks

**Q.** Which results are given for CO[C@@H](C(=O)N[C@H]1CC[C@@H](OC(=O)C2CCCCC2)CNC1=O)[C@H](O)[C@@H](O)[C@H](O)/C=C/C(C)(C)C [Ex. 1, (2R, 3R, 4S, 5R, 6E)-3,4,5-trihydroxy-2-methoxy-8,8-dimethyl-N-[(3S, 6R)-hexahydro-2-oxo-6-(cyclohexylcarbonyl)oxy-2H-azepin-3-yl]non-6-enamide]?
**A.** solubility (Water solubility): 3700 µg/mL (≈ 7.42 mM); IC50 [1]: 68 ± 40 nM; Dead/Total [2, 3]: 0/8; Δ MTV [2, 3]: 107 mm^3; Dead/Total [2, 4]: 0/8; Δ MTV [2, 4]: 43 mm^3; Dead/Total [2, 5]: 0/8; Δ MTV [2, 5]: -11 mm^3; response vs control in vivo at 10 µmol/kg [2]: 61%; response vs control in vivo at 33 µmol/kg [2]: 24%; response vs control in vivo at 100 µmol/kg [2]: -6%

**Q.** With CO[C@@H](C(=O)N[C@H]1CC[C@@H](OC(=O)CCc2ccccc2)CNC1=O)[C@H](O)[C@@H](O)[C@H](O)/C=C/C(C)(C)C [Ex. 4, (2R, 3R, 4S, 5R, 6E)-3,4,5-trihydroxy-2-methoxy-8,8-dimethyl-N-[(3S, 6R)-hexahydro-2-oxo-6-(1-oxo-3-phenylpropoxy)-2H-azepin-3-yl]non-6-enamide] as the molecule, how does the solubility (physchem) read?
**A.** 800 µg/mL (≈ 1.54 mM)

**Q.** What about the IC50 [1] of the same molecule?
**A.** 10 ± 10 nM

**Q.** What about the Dead/Total [2, 3] of the same molecule?
**A.** 0/8

**Q.** What about the “Δ MTV” value [2, 3] of the same molecule?
**A.** 93 mm^3

**Q.** What about the Dead/Total [2, 4] of the same molecule?
**A.** 0/8

**Q.** And the “Δ MTV” value [2, 4]?
**A.** 21 mm^3

**Q.** And the Dead/Total [2, 5]?
**A.** 0/8

**Q.** What about the “Δ MTV” value [2, 5] of the same molecule?
**A.** -23 mm^3

**Q.** What about the response vs control in vivo at 10 µmol/kg ([2]; 10 µmol/kg i.v., 3X/week for 3 weeks, * = statistically significant (p=<0.05)) of the same molecule?
**A.** 53%

**Q.** What about the response vs control in vivo at 33 µmol/kg ([2]; 33 µmol/kg i.v., 3X/week for 3 weeks, * = statistically significant (p=<0.05)) of the same molecule?
**A.** 12%

**Q.** What about the response vs control in vivo at 100 µmol/kg ([2]; 100 µmol/kg i.v., 3X/week for 3 weeks, * = statistically significant (p=<0.05)) of the same molecule?
**A.** -13%
